Laboratory results taken from patent US11642362B2, “Methods of inhibiting cell proliferation and METTL8 activity” (NATIONAL UNIVERSITY OF SINGAPORE, priority 2017, dated 2023).

Legend:
[1] = system: Mettl8 mRNA; assay: Real-time PCR of Mettl8 mRNA in ESCs / E14 cells treated with STAT3 inhibitors; assay type: cell-based, mouse; conditions: for Mettl8 mRNA expression (real-time PCR): E14 cells treated for 6 hr; for Mettl8 mRNA (real-time PCR): ESCs treated with 10 μM STAT3 inhibitor for 1 hr
Procedure: To investigated how STAT3 crosstalk with other potential pathways in pluripotency of embryonic stem cells (“ESCs”), inventors tried to identify factors that were regulated by STAT3 using mouse ESCs treated with STAT3 inhibitors STA-21 and STATTIC. Real-time PCR was performed to screen for changes when embryonic stem cells (ESCs) were treated with STAT3 inhibitor 10 μM STA-21 and STATTIC for 1 hr. RNAs were extracted with TRIZOL followed by reverse transcription. Total RNAs were extracted from E14 cells treated with STA-21 and STATTIC for 6 hr and analyzed by real-time PCR. […] The data are shown as the mean±SD from three independent experiments (*p<0.05). The cell lysates from treated E14 cells were also analyzed by Western blot. Consistent with the mRNA expression, the protein levels of Mettl8 were reduced with presence of STA-21 and STATTIC (FIG. 5J). The value of each band was calculated from three independent replicates and indicates the relative expression level after normalizing to the loading control Actin.

[2] = system: Mettl8; assay: Western blot of Mettl8 protein in E14 cells treated with STAT3 inhibitors; assay type: cell-based, mouse
Procedure: Total RNAs were extracted from E14 cells treated with STA-21 and STATTIC for 6 hr and analyzed by real-time PCR. […] The data are shown as the mean±SD from three independent experiments (*p<0.05). The cell lysates from treated E14 cells were also analyzed by Western blot. Consistent with the mRNA expression, the protein levels of Mettl8 were reduced with presence of STA-21 and STATTIC (FIG. 5J). The value of each band was calculated from three independent replicates and indicates the relative expression level after normalizing to the loading control Actin.

[3] = system: Mettl8; assay: STAT3 shRNA knockdown in E14 cells, Mettl8 mRNA and protein; assay type: cell-based, mouse; conditions: Luc shRNA as control
Procedure: Luc shRNA was used as control. Data in FIG. 5K are shown as the mean±SD from three independent experiments. The value of each band in FIG. 5L was calculated from three independent replicates and indicates the relative expression level after normalizing to the loading control Actin.

[4] = system: HCT116 cells; assay: Cell growth (colony formation) assay, crystal violet; assay type: cell-based, human; conditions: HCT116, 500 cells/well, 7 days, versus scramble shRNA / empty vector
Procedure: (§1) In the soft agar colony assay, HCT116 cells with Mettl8 wt or ΔSAM were seeded at 500 cells/well in 6-well plate in triplicate and after 2-week colonies grown up in soft agar was shown. Colonies with more than 50 cells were counted with Quantity One software. […] 7 days later, cells were fixed and stained with crystal violet. The images of plates were collected with ImageLab software.

[5] = system: ATM; assay: Camptothecin treatment of HCT116 WT and METTL8 KO cells, ATM activation immunoblot; assay type: cell-based, human; conditions: 10 μM camptothecin 0-24 hr; Mettl8 knockout HCT116 cells compared with WT
Procedure: HCT116 WT and METTL8 KO cells were treated with 10 μM camptothecin for 0 h, 1 hr, 3 hr, 6 hr, 16 hr, and 24 hr. Equal amount of lysates were resolved on SDS-PAGE followed by immunoblotting with antibodies.

[6] = system: Mettl8 protein; assay: Mettl8 protein level after cisplatin treatment (SDS-PAGE, immunoblotting); assay type: cell-based, human; conditions: 293T, HCT116 and HepG2 cells; cisplatin 0, 10, 30, 60, 100, 150 μM for 24 h
Procedure: To further study modulation of Mettl8 protein, 293T, HCT116, and HepG2 cells were treated with different dosage of cisplatin (0, 10, 30, 60, 100, and 150 μM) for 24 h before cell lysates were collected and subjected to SDS-PAGE followed by immunoblotting with Mettl8 and Hsp90 antibodies.

[7] = system: Mettl8; assay: Mettl8 expression after treatment with interstrand crosslinking agents; assay type: cell-based
[8] = system: HCT116 wildtype and Mettl8 knockout cells; assay: Cisplatin sensitivity MTS assay; assay type: cell-based, human; conditions: Mettl8 knockout versus wildtype HCT116 cells
Procedure: (§2) To further study the relationship between cisplatin and Mettl8, MTS and colony survival assays were performed. In the MTS assay, HCT116 wildtype and Mettl8 knockout cells were seed in 96 well at 1000 cell/well density and treated with different dose of cisplatin. In the colony survival assay, 500 cells per well of HCT116 control and Mettl8 knockout cells were seeded into 6-well plates in triplicate and subjected to different dosage of cisplatin treatment for 2 h.

[9] = system: HCT116 control and Mettl8 knockout cells; assay: Cisplatin sensitivity colony survival assay; assay type: cell-based, human; conditions: Mettl8 knockout versus control HCT116 cells; cisplatin 2 h, grown a week
Procedure: as §2
Cells were grown in fresh media for a week and the survival cell colonies were fixed and stained with crystal violet. Colonies with more than 50 cells were counted. The result was presented in ±SEM of percentage of colonies survived compared to untreated samples. […] This effect is dependent on p53 for cisplatin induced apoptosis (data not shown). This difference in sensitivity could be exploited in clinical context that patients with functional p53 and low Mettl8 tumor may benefit more from cisplatin treatment instead of radiotherapy.

[10] = system: Mettl8; assay: shRNA knockdown of Mettl8 in HCT116 (lentivirus, Western blotting); assay type: cell-based, human; conditions: HCT116, lentiviral pLKO1 shRNA, 72 h
Procedure: To study the functions of Mettl8, hairpin shRNA was ordered and cloned into pLKO1 vector by AgeI/EcoRI, with the following sequence:
The hairpin sequences in the shRNA were underlined. […]. Supernatant was harvested after 48 hours and cleared by filtration. Then viral solution was added to fresh HCT116 culture in the presence of 6 ug/ml polybrene. After 72 h, the cells were lysed and equal amount of lysate was resolved on SDS-PAGE for knock down efficiency by Western blotting with anti-Mettl8 and actin antibodies as indicated in FIG. 2.

[11] = system: pS/TQ motif on Mettl8; assay: Flag IP and pS/TQ immunoblot of Flag-Mettl8 in HCT116 stable cells; assay type: cell-based, human
Description: Since both ATM and p53 are tumor suppressors in response to DNA damage, inventors further explored the function of Mettl8 in DNA damage. […] Equal amount of lysates were subject to Flag immunoprecipitation (“IP”) with M-2 beads and washed extensively before being resolved on SDS-PAGE and followed by immunoblotting with an phosphorylation-specific antibody against pS/TQ motif (Cell signaling) and a Flag antibodu. The lysates were immunoblotted by anti-Flag, Actin, ATM pS1981, Chk2 pT68 and p53 p515 antibodies.
In this experiment, equal amount of lysate was immunopurified with M2 beads and probed for pS/TQ antibody, the lysate was checked for antibodies indicated in FIG. 7C.
Equal amounts of lysate were immunopurified with M2 beads and probed for pS/TQ antibody, the lysate was checked for antibodies indicated.

[12] = system: ATM, KAP1, Chk2, p53; assay: ATM inhibitor pre-treatment of Mettl8 mutant or knockout cells before irradiation (immunoblot); assay type: cell-based; conditions: Mettl8 mutant or knockout cells pre-treated with ATM inhibitor before irradiation
[13] = 3H-SAM binding assay with GST-Mettl8 proteins on beads, scintillation counting; set-up: species or system human; conditions: recombinant purified GST-Mettl8 wt and SAM mutant
Procedure: To test the ability of Mettl8 to bind SAM, equal amounts of GST, GST-Mettl8 WT and mutant proteins were conjugated on Glutathione sepharose 4B beads and incubated with ^3H-SAM for 30 min at 30° C. with empty beads control. After extensive washing, the beads were transferred to scintillation tubes and measured on liquid scintillation counter in triplicate.
(§3) As ATM is essential for cell checkpoint, the cell cycle profiles were studies in this experiment. The plasmid containing the cDNA of human Mettle8 SAM deletion mutant was constructed by PCR based mutagenesis method to delete the specific nucleotide sequence in the SAM domain as shown in FIG. 7A. After the plasmid was transfected into HCT116 wildtype cells, stable colonies of cell containing the plasmid were selected, which were called Mettl8 ΔSAM cells. The Mettle8 ΔSAM variant cDNA was also transduced into human skin fibroblast as shown in FIG. 7N by a lentivirus based method. These HCT116 stable cells were examined in cell cycle analysis (FIG. 9A) and soft agar colony assay (FIG. 9B).

[14] = system: HCT116 stable cells; assay: Cell cycle profiling by FACS of HCT116 stable cells; assay type: cell-based, human; conditions: un-stressed conditions, versus empty vector and wild-type Mettl8
Description: as §3
In addition, HCT116 stable cells with Mettl8 variant were fixed with 70% ethanol and stained with pI followed by cell cycle profiling on FACS and data were analysed with FlowJo software.

[15] = system: HCT116 cells; assay: Soft agar colony assay; assay type: cell-based, human; conditions: HCT116 stable cells, 500 cells/well, 2 weeks, compared to empty vector
Procedure: as §1

Molecule: O=[N+]([O-])c1ccc2c(c1)S(=O)(=O)C=C2 [STATTIC, 6-Nitrobenzo[b]thiophene 1,1-dioxide]
- Mettl8 mRNA expression (real-time PCR) [1]: inhibited
- Mettl8 mRNA (real-time PCR) [1]: downregulated
- Mettl8 protein levels (Western blot) [2]: reduced

Molecule: STAT3 shRNA: shRNA sequence TTTGTGCTTAGGATGGCCC, SEQ ID No: 7; full sequence SEQ ID No: 8 (GATCCCCGGGCCATCCTAAGCACAAATTCAAGAGATTTGTGCTTAGGATGGCCCTTTTTA)
- Mettl8 mRNA [3]: downregulation
- Mettl8 protein [3]: downregulation

Molecule: Mettl8 shRNA2: shRNA sequence GCGAGAGAATCATCATGGGAT, SEQ ID No: 3
- colony formation [4]: significantly reduced the colony formation

Molecule: CC[C@@]1(O)C(=O)OCc2c1cc1n(c2=O)Cc2cc3ccccc3nc2-1 [camptothecin]
- ATM activation [5]: caused hyperactivation of ATM

Molecule: CC1CC(=O)c2c(ccc3c2C(=O)c2cccc(O)c2C3=O)C1 (stereo not shown) [STA-21, 8-hydroxy-3-methyl-3,4-dihydrotetraphene-1,7,12(2H)-trione]
- Mettl8 mRNA expression (real-time PCR) [1]: inhibited
- Mettl8 mRNA (real-time PCR) [1]: downregulated
- Mettl8 protein levels (Western blot) [2]: reduced

Molecule: N.N.[Cl][Pt][Cl] [cisplatin]
- Mettl8 protein level [6]: dramatically reduced
- Mettl8 expression at transcriptional level [7]: downregulated at transcriptional level
- sensitivity to cisplatin treatment (MTS assay) [8]: more sensitive
- sensitivity to cisplatin treatment (colony survival assay) [9]: more sensitive

Molecule: CO[C@@]12[C@H](COC(N)=O)C3=C(C(=O)C(C)=C(N)C3=O)N1C[C@@H]1N[C@@H]12 [mitomycin C]
- Mettl8 expression at transcriptional level [7]: downregulated at transcriptional level

Molecule: shRNA: hairpin shRNA against Mettl8 cloned into pLKO1, SEQ ID NO: 15; hairpin matches M8 shRNA1 GTTGAGGGAATTTCCTGAAAT (CCGGGTTGAGGGAATTTCCTGAAATCTCGAGATTTCAGGAAATTCCCTCAACTTTTTTG)
- Mettl8 expression (knock down efficiency, Western blotting) [10]: can knock down the expression of Mettl8

Molecule: O=c1cc(-c2cccc3c2Sc2ccccc2S3)oc(N2CCOCC2)c1 [Ku55933]
- prevention of Mettl8 phosphorylation by IR ([11]; 1 μM Ku55933 pretreatment 1 hour, 10 Gy, harvested 1 h later, doses 0.1, 1, 5 μM tested): sufficient to prevent the phosphorylation of Mettl8
- irradiation-induced phosphorylation at the pS/TQ motif of Flag-Mettl8 ([11]; HCT116 Flag-Mettl8 cells pretreated 1 hour with inhibitor (AZD7762 0.5 μM), then 10 Gy): reduced the phosphorylation
- hyper activation of ATM, KAP1, Chk2, p53 by irradiation [12]: either reverted or eliminated the hyper activation

B1: Mettl8 ASAM variant: human Mettl8 variant with SAM domain deletion (aa 200-208), SEQ ID No. 18; competes with endogenous Mettl8 (protein)
chain: MNMIWRNSISCLRLGKVPHRYQSGYHPVAPLGSRILTDPAKVFEHNMWDHMQWSKEEEAAARKKVKENSAVRVLLEEQVKYEREASKYWDTFYKIHKNKFFKDRNWLLREFPEILPVDQKPEEKARESSWDHVKTSATNRFSRMHCPTVPDEKNHYEKSSGSSEGQSKTESDFSNLDSEKHKKGPMETGLFPGSNATFRNSVFPILNTLENSPESFLYCCDFASGAVELVKSHSSYRATQCFAFVHDVCDDGLPYPFPDGILDVILLVFVLSSIHPDRMQGVVNRLSKLLKPGGMLLFRDYGRYDKTQLRFKKGHCLSENFYVRGDGTRAYFFTKGEVHSMFCKASLDEKQNLVDRRLQVNRKKQVKMHRVWIQGKFQKPLHQTQNSSNMVSTLLSQD
- binding of SAM [13]: lost the ability to bind the SAM donor molecule
- cell cycle profile [14]: more accumulation of G2/M populations
- soft agar colony numbers [15]: much reduced colony numbers
